Assay in all cases: relative viability (nuclei count vs DMSO), 5 days (fraction); higher = more cells survive
Compound in experiment [1]: CC1=CC(=NN1)NC2=CC(=NC(=N2)/C=C/C3=CC=CC=C3)N4CCN(CC4)C + CC(=O)Nc1cccc(-n2c(=O)n(C3CC3)c(=O)c3c(Nc4ccc(I)cc4F)n(C)c(=O)c(C)c32)c1 [Trametinib] (partner 0.02 µM)
In outline: (§1)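 Five library-drug doses in √10 steps were combined with a fixed anchor-drug dose, or a single drug was given alone, by pin tool to lung cancer cell lines in 1536-well plates the day after seeding. Nuclei were stained and counted after 5 days. Relative viability is the nuclei count in treated wells over that in vehicle wells, taken as the median of duplicate plates.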

Compound in the experiment “Obatoclax + Bortezomib”: COC1=CC(c2cc3ccccc3[nH]2)=N/C1=C\c1[nH]c(C)cc1C [Obatoclax] + CC(C)C[C@H](NC(=O)[C@H](Cc1ccccc1)NC(=O)c1cnccn1)B(O)O [Bortezomib] (partner 0.002 µM)
In outline: as §1

Compound in experiment [2]: CC1=CC(=NN1)NC2=CC(=NC(=N2)/C=C/C3=CC=CC=C3)N4CCN(CC4)C + Nc1ncn([C@H]2C[C@H](O)[C@@H](CO)O2)c(=O)n1 [Decitabine] (partner 2 µM)
In a few lines: as §1

Compound in the experiment “Bortezomib + Dasatinib”: CC(C)C[C@H](NC(=O)[C@H](Cc1ccccc1)NC(=O)c1cnccn1)B(O)O [Bortezomib] + Cc1nc(Nc2ncc(C(=O)Nc3c(C)cccc3Cl)s2)cc(N2CCN(CCO)CC2)n1 [Dasatinib] (partner 0.075 µM)
In outline: as §1

As for NCI-H650, the relative viability is 0.891 in experiment [1] (first compound 0.08 µM); 0.706 in experiment [1] (first compound 0.253 µM); 0.907 in experiment [1] (first compound 0.8 µM); 0.627 in experiment [1] (first compound 2.53 µM); 0.166 in experiment [1] (first compound 8 µM); 0.795 with Obatoclax + Bortezomib (first compound 0.01 µM). In addition, the relative viability with Obatoclax + Bortezomib (first compound 0.03162 µM) was 0.732; with Obatoclax + Bortezomib (first compound 0.1 µM) it was 0.455; with Obatoclax + Bortezomib (first compound 0.3162 µM), 0.504; with Obatoclax + Bortezomib (first compound 1 µM) it was 0.337; in experiment [2] (first compound 0.08 µM), 0.314; in experiment [2] (first compound 0.253 µM) it was 0.318. Besides, the relative viability in experiment [2] (first compound 0.8 µM) stood at 0.287; in experiment [2] (first compound 2.53 µM), 0.246; in experiment [2] (first compound 8 µM), 0.157; with Bortezomib + Dasatinib (first compound 0.000632 µM), 0.503; with Bortezomib + Dasatinib (first compound 0.002 µM), 0.428; in the experiment with Bortezomib + Dasatinib (first compound 0.006325 µM) it was 0.268. For the same cell line, the relative viability with Bortezomib + Dasatinib (first compound 0.02 µM) was 0.16.

For the origin of these results see the supplement of paper PMC10307832.
